Each structure is given as a SMILES string.

Among the data in PMC10777855, “Pharmacological validation of dihydrofolate reductase as a drug target in Mycobacterium abscessus” (Antimicrobial Agents and Chemotherapy, 2023) are IC50 values, retold here.

The first assay deals with T1, M. abscessus DHFR (recombinant) (Mycobacteroides abscessus, UniProt B1MD46).
T1 construct: gene MAB_3090c; E. coli codon-optimised gene in pET28a (NcoI/XhoI), N-terminal His6-tag, expressed in E. coli BL21(DE3), Ni-NTA purified; tag removal not mentioned
T1 sequence (B1MD46 1-163): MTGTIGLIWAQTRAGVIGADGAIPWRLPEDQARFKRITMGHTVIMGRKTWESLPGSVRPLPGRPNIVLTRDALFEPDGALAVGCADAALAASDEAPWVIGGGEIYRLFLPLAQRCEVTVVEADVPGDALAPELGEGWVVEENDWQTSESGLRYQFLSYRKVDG
Kind of assay: NADPH absorbance decrease at […] nm (DHFR kit CS0340). Type of assay: biochemical. The settings on record: read-out: IC50 (μM) ^ b.
Broadly, the IC50 is the midpoint of a concentration-inhibition curve. On to `COc1cc(Cc2cnc(N)nc2N)c2c(c1OC)OC(C1CC1)C=C2` (stereo not shown) [Iclaprim], for which the IC50 was determined as 0.6 µM. Same read-out and setting: for `COc1cc(Cc2cnc(N)nc2N)cc(OC)c1OC` [Trimethoprim] the value was 25 µM; for `COCCOc1c(OC)cc(Cc2cnc(N)nc2N)cc1OC` [Tetroxoprim], 20 µM. On the same count and under the same terms, the result for `COc1cc(NCc2ccc3nc(N)nc(N)c3c2C)cc(OC)c1OC` [Trimetrexate] reads 0.005 µM; that for `CCc1nc(N)nc(N)c1-c1ccc(Cl)cc1` [Pyrimethamine], 4.7 µM; that for `CC1(C)N=C(N)N=C(N)N1OCCCOc1cc(Cl)c(Cl)cc1Cl` [WR99210], 0.016 µM. Same read-out and setting: for `C#CCC(Cc1cnc2nc(N)nc(N)c2n1)c1ccc(C(=O)N[C@@H](CCC(=O)O)C(=O)O)cc1` (stereo partly shown) [Pralatrexate] the value was 0.21 µM. For `CN(Cc1cnc2nc(N)nc(N)c2n1)c1ccc(C(=O)N[C@@H](CCC(=O)O)C(=O)O)cc1` [Methotrexate], the half-maximal inhibitory concentration (IC50) turned out to be 0.016 µM. Same read-out and setting: the result for `COc1cc(Cc2cnc(N)nc2N)cc(OC)c1Br` [Brodimoprim] reads 1.7 µM; that for `N#Cc1ccc(Cn2ccc3c4c(N)nc(N)nc4ccc32)cc1` [PQD-1], 0.0025 µM.

Staying with this assay, now noted: read-out: IC50 ^ b.
With `Nc1nc(N)c2c(ccc3c2ccn3Cc2ccc3ccccc3c2)n1` [PQD-7], the concentration for half-maximal inhibition (IC50) came to 0.015 µM. For `N#Cc1cccc(Cn2ccc3c4c(N)nc(N)nc4ccc32)c1` [PQD-2], the IC50 is 0.0034 µM. Still for that read-out and setting: for `Cc1cccc(Cn2ccc3c4c(N)nc(N)nc4ccc32)n1` [PQD-4] the value was 0.015 µM; for `Nc1nc(N)c2c(ccc3c2ccn3Cc2cccc(Cl)c2)n1` [PQD-9], 0.03 µM; for `N#Cc1ccccc1Cn1ccc2c3c(N)nc(N)nc3ccc21` [PQD-5], 0.016 µM. As to `Cc1ccccc1Cn1ccc2c3c(N)nc(N)nc3ccc21` [PQD-6], the 50% inhibitory concentration (IC50) was 0.015 µM. Take `Nc1nc(N)c2c(ccc3c2ccn3Cc2ccc(F)cc2)n1` [PQD-8]: the IC50 came out at 0.02 µM. The same measure, in the same setting: the result for `CC(C)Nc1nc(N)c2c(ccc3c2ccn3Cc2ccc(C(C)C)cc2)n1` [PQD-10] reads 4.1 µM. Same read-out and setting: the result for `COC(=O)c1ccc(Cn2ccc3c4c(N)nc(N)nc4ccc32)cc1` [PQD-3] reads 0.015 µM.
